Experimental data from ChEMBL document CHEMBL5356945, “Discovery of PFI-6, a small-molecule chemical probe for the YEATS domain of MLLT1 and MLLT3” (Bioorg Med Chem Lett, 2024).
Converted amounts (≈) assume the structure as drawn.

How the values were obtained:
Protein AF-9 [1] = target: T1, Protein AF-9 (Homo sapiens, UniProt P42568); test: Binding affinity to MLLT3 in human HEK293 cells by NanoBRET assay; assay type: cell-based
T1 sequence (P42568 whole entry): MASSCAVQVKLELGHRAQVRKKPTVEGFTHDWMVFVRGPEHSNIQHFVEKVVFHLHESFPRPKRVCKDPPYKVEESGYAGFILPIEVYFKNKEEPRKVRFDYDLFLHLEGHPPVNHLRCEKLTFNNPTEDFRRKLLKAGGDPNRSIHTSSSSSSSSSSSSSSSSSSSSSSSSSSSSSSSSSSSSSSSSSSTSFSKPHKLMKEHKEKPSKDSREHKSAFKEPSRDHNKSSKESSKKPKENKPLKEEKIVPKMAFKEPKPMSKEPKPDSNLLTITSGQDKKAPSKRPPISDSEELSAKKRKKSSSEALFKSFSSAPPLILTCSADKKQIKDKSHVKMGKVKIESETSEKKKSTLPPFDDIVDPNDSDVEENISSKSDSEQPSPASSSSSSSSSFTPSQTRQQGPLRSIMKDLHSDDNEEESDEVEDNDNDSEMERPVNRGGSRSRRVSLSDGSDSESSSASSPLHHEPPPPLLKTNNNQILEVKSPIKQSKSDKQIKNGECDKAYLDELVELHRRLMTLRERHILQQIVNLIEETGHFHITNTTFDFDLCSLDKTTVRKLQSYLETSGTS

[2] = Lipophilicity, logD of the compound by shake flask method; assay type: physicochemical; conditions: octanol/water
[3] = target: T2, YEATS domain-containing protein 2 (Homo sapiens, UniProt Q9ULM3); test: Inhibition of YEATS2 YD domain (unknown origin) assessed as disruption of histone peptide binding using histone peptide as substrate by HTRF assay
T2 sequence (Q9ULM3 whole entry): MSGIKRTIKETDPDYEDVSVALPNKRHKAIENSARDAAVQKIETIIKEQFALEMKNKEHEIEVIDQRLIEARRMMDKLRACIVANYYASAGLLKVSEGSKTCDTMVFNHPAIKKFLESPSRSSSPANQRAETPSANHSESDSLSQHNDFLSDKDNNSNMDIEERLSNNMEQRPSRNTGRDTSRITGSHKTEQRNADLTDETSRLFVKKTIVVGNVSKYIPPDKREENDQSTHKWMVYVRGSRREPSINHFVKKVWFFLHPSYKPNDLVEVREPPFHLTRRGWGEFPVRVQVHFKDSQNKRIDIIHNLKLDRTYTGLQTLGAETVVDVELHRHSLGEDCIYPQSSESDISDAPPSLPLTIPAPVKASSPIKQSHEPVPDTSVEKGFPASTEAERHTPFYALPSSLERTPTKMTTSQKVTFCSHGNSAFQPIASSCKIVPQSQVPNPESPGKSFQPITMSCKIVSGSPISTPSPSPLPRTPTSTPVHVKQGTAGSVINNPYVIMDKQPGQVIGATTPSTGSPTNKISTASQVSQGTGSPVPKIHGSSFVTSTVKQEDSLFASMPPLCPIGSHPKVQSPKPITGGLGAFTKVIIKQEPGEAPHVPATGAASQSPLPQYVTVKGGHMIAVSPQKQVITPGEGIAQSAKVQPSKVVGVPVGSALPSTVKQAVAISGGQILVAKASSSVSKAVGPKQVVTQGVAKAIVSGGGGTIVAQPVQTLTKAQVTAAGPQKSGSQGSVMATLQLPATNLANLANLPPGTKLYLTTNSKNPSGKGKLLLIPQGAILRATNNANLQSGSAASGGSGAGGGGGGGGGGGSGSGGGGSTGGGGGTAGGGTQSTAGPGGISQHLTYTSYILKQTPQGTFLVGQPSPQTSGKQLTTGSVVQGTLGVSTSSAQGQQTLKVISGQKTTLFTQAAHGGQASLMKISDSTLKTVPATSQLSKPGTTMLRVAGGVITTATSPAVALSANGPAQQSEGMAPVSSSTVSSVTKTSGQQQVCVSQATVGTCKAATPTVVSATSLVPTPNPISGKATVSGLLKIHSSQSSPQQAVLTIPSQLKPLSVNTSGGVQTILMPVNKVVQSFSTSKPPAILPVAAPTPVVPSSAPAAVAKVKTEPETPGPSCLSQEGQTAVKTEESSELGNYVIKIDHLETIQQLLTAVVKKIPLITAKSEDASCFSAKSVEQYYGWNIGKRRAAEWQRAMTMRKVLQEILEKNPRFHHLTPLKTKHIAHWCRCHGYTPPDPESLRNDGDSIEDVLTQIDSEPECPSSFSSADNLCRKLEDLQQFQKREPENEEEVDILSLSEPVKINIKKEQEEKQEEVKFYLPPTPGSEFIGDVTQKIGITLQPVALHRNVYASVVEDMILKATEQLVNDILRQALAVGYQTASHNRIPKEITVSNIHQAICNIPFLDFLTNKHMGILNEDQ

[4] = target: T3, YEATS domain-containing protein 4 (Homo sapiens, UniProt O95619); test: Inhibition of YEATS4 YD domain (unknown origin) assessed as disruption of histone peptide binding using histone peptide as substrate by HTRF assay
[5] = target: T4, Protein ENL (Homo sapiens) (UniProt Q03111); test: Binding affinity to MLLT1 YD domain (unknown origin) assessed as change in melting temperature by thermal shift assay
T4 sequence (whole entry): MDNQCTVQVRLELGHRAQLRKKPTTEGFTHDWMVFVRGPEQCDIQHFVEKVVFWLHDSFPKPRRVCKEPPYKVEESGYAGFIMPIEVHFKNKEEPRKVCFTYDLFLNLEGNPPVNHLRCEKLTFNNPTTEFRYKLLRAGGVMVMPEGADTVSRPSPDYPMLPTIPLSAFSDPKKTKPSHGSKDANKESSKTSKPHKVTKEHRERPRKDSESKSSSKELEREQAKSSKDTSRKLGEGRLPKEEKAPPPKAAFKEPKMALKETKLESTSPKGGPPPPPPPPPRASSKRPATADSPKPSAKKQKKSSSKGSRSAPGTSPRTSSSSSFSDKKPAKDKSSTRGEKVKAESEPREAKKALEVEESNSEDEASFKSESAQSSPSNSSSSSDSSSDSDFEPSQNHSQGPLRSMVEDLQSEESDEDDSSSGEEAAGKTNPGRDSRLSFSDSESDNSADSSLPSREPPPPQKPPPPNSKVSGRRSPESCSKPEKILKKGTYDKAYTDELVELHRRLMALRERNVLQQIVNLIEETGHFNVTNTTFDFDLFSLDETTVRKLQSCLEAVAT

[6] = target: T5, YEATS domain-containing protein 2 (Homo sapiens) (UniProt Q9ULM3); test: Binding affinity to YEATS2 YD domain (unknown origin) assessed as change in melting temperature by thermal shift assay
T5 sequence (whole entry): T2 sequence (Q9ULM3 whole entry)

[7] = target: T3, YEATS domain-containing protein 4; test: Binding affinity to YEATS4 YD domain (unknown origin) assessed as change in melting temperature by thermal shift assay
[8] = Passive apparent permeability in dog MDCK cells; assay type: ADME, cell-based, Canis lupus familiaris
[9] = Kinetic solubility of compound at pH 7.4; assay type: physicochemical; conditions: buffer, read-out: Kinetic_solubility
[10] = Metabolic stability in human hepatocytes assessed as apparent intrinsic clearance measured per million cells; assay type: ADME, cell-based, Hepatocyte
[11] = target: Voltage-gated inwardly rectifying potassium channel KCNH2 (Homo sapiens, UniProt Q12809); test: Inhibition of human ERG assessed as inhibition constant by patch-clamp assay; assay type: toxicity
[12] = Cytotoxicity against human THLE cells assessed as decrease in cellular ATP by CellTiter-Glo assay; assay type: toxicity, cell-based
[13] = target: T6, Protein AF-9 (Homo sapiens) (UniProt P42568)
T6 sequence (whole entry): T1 sequence (P42568 whole entry)
Description: Binding affinity to MLLT3 YD domain (unknown origin) assessed as change in melting temperature by thermal shift assay

Protein ENL [14] = target: T7, Protein ENL (Homo sapiens, UniProt Q03111); test: Inhibition of MLLT1 YD domain (unknown origin) assessed as disruption of histone peptide binding using histone peptide as substrate by HTRF assay
T7 sequence (Q03111 whole entry): T4 sequence (whole entry)

Protein AF-9 [15] = target: T1, Protein AF-9; test: Inhibition of MLLT3 YD domain (unknown origin) assessed as disruption of histone peptide binding using histone peptide as substrate by HTRF assay
Protein ENL [16] = target: T7, Protein ENL; test: Inhibition of His-tagged MLLT1 YD domain (unknown origin) assessed as disruption of protein binding to histone peptide using biotinylated histone peptide as substrate by AlphaScreen assay
[17] = target: T4, Protein ENL (Homo sapiens); test: Inhibition of His-tagged MLLT1 YD domain (unknown origin) assessed as disruption of protein binding to histone peptide using biotinylated histone peptide as substrate at 100 uM by AlphaScreen assay

T3 sequence (O95619 whole entry, the tested form may be a part): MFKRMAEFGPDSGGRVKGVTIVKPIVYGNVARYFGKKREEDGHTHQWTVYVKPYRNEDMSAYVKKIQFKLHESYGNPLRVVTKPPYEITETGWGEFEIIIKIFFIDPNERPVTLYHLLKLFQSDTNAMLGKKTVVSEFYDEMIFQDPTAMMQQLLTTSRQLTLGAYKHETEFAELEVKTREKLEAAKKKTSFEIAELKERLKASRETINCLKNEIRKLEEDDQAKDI
Chain of Voltage-gated inwardly rectifying potassium channel KCNH2 (Q12809 whole entry): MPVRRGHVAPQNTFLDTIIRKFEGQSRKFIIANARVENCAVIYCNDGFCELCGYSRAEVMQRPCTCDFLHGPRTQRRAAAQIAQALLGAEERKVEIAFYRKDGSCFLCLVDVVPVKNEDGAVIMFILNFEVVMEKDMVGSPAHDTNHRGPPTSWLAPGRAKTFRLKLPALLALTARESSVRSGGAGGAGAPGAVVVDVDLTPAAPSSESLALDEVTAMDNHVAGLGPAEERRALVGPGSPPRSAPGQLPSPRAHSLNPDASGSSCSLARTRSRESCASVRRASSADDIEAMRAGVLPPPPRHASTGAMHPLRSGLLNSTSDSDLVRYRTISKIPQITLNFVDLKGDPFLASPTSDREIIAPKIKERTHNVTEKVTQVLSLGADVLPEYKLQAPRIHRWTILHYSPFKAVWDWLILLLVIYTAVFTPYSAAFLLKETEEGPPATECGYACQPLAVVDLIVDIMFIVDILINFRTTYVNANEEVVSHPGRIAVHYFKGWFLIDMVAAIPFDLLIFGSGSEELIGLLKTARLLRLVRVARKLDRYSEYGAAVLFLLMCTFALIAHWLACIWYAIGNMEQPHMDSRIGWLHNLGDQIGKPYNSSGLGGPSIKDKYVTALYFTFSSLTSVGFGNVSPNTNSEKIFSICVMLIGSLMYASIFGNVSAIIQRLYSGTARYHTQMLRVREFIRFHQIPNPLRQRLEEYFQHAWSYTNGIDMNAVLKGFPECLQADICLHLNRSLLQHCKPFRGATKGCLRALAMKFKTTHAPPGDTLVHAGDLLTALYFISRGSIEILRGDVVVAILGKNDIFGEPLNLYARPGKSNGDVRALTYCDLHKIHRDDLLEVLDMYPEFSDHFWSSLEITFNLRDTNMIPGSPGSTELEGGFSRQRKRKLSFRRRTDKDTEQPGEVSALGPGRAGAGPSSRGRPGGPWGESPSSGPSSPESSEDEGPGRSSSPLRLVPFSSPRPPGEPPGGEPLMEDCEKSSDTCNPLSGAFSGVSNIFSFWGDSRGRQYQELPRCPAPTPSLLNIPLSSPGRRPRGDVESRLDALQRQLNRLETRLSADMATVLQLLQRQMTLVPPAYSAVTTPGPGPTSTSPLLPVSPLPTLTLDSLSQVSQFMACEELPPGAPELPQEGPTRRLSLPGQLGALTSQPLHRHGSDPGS

IC50 [3] [µM] | IC50 [4] [µM] | IC50 (Protein ENL [14]) [µM] | IC50 (Protein AF-9 [15]) [µM] | IC50 (Protein ENL [16]) [µM] | Compound | also measured
– | – | – | – | – | C[C@H]1CCCN1Cc1nc2cc(NC(=O)c3ccc4c(cnn4C)c3)ccc2[nH]1 | IC50 (Protein AF-9 [1]): 0.6 µM
> 30 | > 30 | – | – | – | CN(C)C(=O)c1ccc(-c2cc(C(=O)N[C@@H]3CCc4ccccc43)no2)cc1O | logD [2]: 3.3; ΔTm [5]: 3.61 °C; ΔTm [6]: 0 °C; ΔTm [7]: -0.02 °C; Papp [8]: 27 ×10⁻⁶ cm/s; solubility kinetic [9]: 3000 µM (≈ 1170 µg/mL); CLH(app) [10]: 43 µL/min; Ki [11]: > 100 µM; IC50 [12]: > 100 µM; ΔTm [13]: 5.13 °C
> 30 | > 30 | 0.16 | 0.12 | – | CN(C)C(=O)c1ccc(-c2cc(C(=O)NC3CCCC3)no2)cc1O | –
– | – | – | – | 21.9 | O=C(NCC1CC1)c1cc(-c2cccc(O)c2)on1 | –
– | – | – | – | 6.9 | O=C(NC1CCCC1)c1cc(-c2ccc(O)cc2)on1 | –
> 30 | > 5.8 | 0.75 | 0.5 | – | O=C(NC1CCCC1)c1cc(-c2ccc(Cl)c(O)c2)on1 | –
– | – | – | – | 9.13 | CC(C)NC(=O)c1cc(-c2cccc(O)c2)on1 | –
> 26 | > 30 | 0.97 | 0.5 | – | O=C(NC1CCCC1)c1cn(-c2cccc(O)c2)cn1 | –
> 30 | > 30 | 3.4 | 2.4 | – | O=C(NC1CCCC1)c1cnn(-c2cccc(O)c2)c1 | –
> 30 | > 30 | > 30 | > 30 | – | CN(C)C(=O)c1ccc(-c2cc(C(=O)N(C)C3CCCC3)no2)cc1O | IC50 (Protein AF-9 [1]): > 30 µM
– | – | – | – | – | C/C=C/C(=O)NC1CCCC1 | inhibition [17]: 55%
– | – | – | – | 1.14 | O=C(NC1CCC1)c1cc(-c2cccc(O)c2)on1 | –
– | – | – | – | 28.9 | O=C(NC1CC1)c1cc(-c2cccc(O)c2)on1 | –
> 30 | > 30 | 2.5 | 3.4 | – | O=C(NC1CCCC1)c1cc(-c2cccc(O)c2)n[nH]1 | –
> 30 | > 30 | 0.26 | 0.2 | – | O=C(NC1CCCC1)c1cc(-c2cc(O)c3cccnc3c2)on1 | –
> 30 | > 30 | 0.93 | 0.63 | 1.1 | O=C(NC1CCCC1)c1cc(-c2cccc(O)c2)on1 | –
– | – | – | – | > 30 | CN(C(=O)c1cc(-c2cccc(O)c2)on1)C1CCCC1 | –
– | – | – | – | 3 | O=C(NC1CCCC1)c1ccc2snnc2c1 | –
– | – | – | – | 5.64 | O=C(NC1CCCC1)c1cc2cc(F)ccc2[nH]1 | –
> 30 | > 30 | > 30 | > 30 | – | O=C(NC1CCCC1)c1cc(-c2cccc(O)c2Cl)on1 | –
